Reference: US20230295197A1, “STAT5 and STAT6 Degraders and Uses Thereof” (REGENTS OF THE UNIVERSITY OF MICHICAN, priority 2022, published 2023)
Where two headings read alike, the source gives them in different places.

Target: T1, STAT6 (Homo sapiens, UniProt P42226)
T1 construct: endogenous in cells; host or cells: MOLM-16, KU-812, SKNO1, MB231, L1236
T1 sequence (P42226 1-847): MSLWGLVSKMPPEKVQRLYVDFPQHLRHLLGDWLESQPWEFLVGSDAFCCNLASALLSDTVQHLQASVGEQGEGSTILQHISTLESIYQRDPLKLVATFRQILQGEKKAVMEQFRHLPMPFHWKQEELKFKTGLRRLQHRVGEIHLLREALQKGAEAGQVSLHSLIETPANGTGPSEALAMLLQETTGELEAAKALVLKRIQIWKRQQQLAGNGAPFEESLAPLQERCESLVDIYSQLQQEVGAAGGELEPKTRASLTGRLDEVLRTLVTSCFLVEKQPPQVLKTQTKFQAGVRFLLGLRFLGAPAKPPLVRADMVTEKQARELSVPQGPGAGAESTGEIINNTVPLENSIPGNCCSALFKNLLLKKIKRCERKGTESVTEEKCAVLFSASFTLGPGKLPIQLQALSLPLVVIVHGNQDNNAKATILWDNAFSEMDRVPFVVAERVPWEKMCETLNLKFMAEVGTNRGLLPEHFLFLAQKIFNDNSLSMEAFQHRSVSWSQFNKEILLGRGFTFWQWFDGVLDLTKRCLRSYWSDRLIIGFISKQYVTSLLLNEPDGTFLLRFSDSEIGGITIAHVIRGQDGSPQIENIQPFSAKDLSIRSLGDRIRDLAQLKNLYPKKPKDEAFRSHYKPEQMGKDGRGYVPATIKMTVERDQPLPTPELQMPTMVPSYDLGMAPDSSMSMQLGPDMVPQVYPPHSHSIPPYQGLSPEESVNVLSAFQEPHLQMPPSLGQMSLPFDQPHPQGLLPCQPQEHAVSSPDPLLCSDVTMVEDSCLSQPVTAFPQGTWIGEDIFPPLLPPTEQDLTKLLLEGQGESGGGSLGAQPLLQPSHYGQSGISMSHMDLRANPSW
Test: Immunoblotting (Western blot) analysis of STAT6 degradation efficiency of degraders in treated cells
Type: cell-based
In short: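 Protein levels of STAT5 and STAT6 were assessed in cells cultured at 37 °C in 10% FBS medium after compound exposure, by quantitative fluorescent Western blotting normalised to equal loading and referenced to GAPDH.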

[1] = MOLM-16 cells, class symbols, read-out: DC50 S6 MOLM-16
[2] = L1236 cells, read-out: DC50 S6 L1236

Compound | DC50 [1] [µM] | DC50 [2] [µM] | further results
CC(C)(C)[C@H](NC(=O)c1cc2cc(C(F)(F)P(=O)(O)O)ccc2s1)C(=O)N1CCN(C(=O)CC(=O)NCCCCCC#Cc2cccc3c2C(=O)N(C2CCC(=O)NC2=O)C3=O)C[C@H]1C(=O)N1CCO[C@H](c2ccccc2)C1 (stereo partly drawn) [Compound 515, ((2-(((2S)-1-((2S)-4-(3-((7-(2-(2,6-dioxopiperidin-3-yl)-1,3-dioxoisoindolin-4-yl)hept-6-yn-1-yl)amino)-3-oxopropanoyl)-2-((R)-2-phenylmorpholine-4-carbonyl)piperazin-1-yl)-3,3-dimethyl-1-oxobutan-2-yl)carbamoyl)benzo[b]thiophen-5-yl)difluoromethyl)phosphonic acid] | > 10 |  | 
Cc1ncsc1-c1ccc([C@H](C)NC(=O)[C@@H]2C[C@@H](O)CN2C(=O)[C@@H](NC(=O)CCCCCCCNC(=O)CC(=O)N2CCN(C(=O)[C@@H](NC(=O)c3cc4cc(C(F)(F)P(=O)(O)O)ccc4s3)C(C)(C)C)[C@H](C(=O)N3CCO[C@H](c4ccccc4)C3)C2)C(C)(C)C)cc1 [Compound 449, (difluoro(2-(((S)-1-((S)-4-(3-((8-(((S)-1-((2S,4R)-4-hydroxy-2-(((S)-1-(4-(4-methylthiazol-5-yl)phenyl)ethyl)carbamoyl)pyrrolidin-1-yl)-3,3-dimethyl-1-oxobutan-2-yl)amino)-8-oxooctyl)amino)-3-oxopropanoyl)-2-((R)-2-phenylmorpholine-4-carbonyl)piperazin-1-yl)-3,3-dimethyl-1-oxobutan-2-yl)carbamoyl)benzo[b]thiophen-5-yl)methyl)phosphonic acid] | > 10 | > 10 | 
Cc1ncsc1-c1ccc([C@H](C)NC(=O)[C@@H]2C[C@@H](O)CN2C(=O)[C@@H](NC(=O)CCCCCCCNC(=O)COc2ccc3c(c2)CN(C(=O)[C@@H](NC(=O)c2cc4cc(C(F)(F)P(=O)(O)O)ccc4s2)C(C)(C)C)[C@H](C(=O)N2CCC[C@H](c4ccccc4)C2)C3)C(C)(C)C)cc1 [Compound 476, (difluoro(2-(((S)-1-((S)-7-(2-((8-(((S)-1-((2S,4R)-4-hydroxy-2-(((S)-1-(4-(4-methylthiazol-5-yl)phenyl)ethyl)carbamoyl)pyrrolidin-1-yl)-3,3-dimethyl-1-oxobutan-2-yl)amino)-8-oxooctyl)amino)-2-oxoethoxy)-3-((R)-3-phenylpiperidine-1-carbonyl)-3,4-dihydroisoquinolin-2(1H)-yl)-3,3-dimethyl-1-oxobutan-2-yl)carbamoyl)benzo[b]thiophen-5-yl)methyl)phosphonic acid] | > 10 |  | 
Cc1ncsc1-c1ccc([C@H](C)NC(=O)[C@@H]2C[C@@H](O)CN2C(=O)[C@@H](NC(=O)CCCCCCCCCNC(=O)CO[C@H]2C[C@@H](C(=O)N3CCO[C@H](c4ccccc4)C3)N(C(=O)[C@@H](NC(=O)c3cc4cc(C(F)(F)P(=O)(O)O)ccc4s3)C(C)(C)C)C2)C(C)(C)C)cc1 [Compound 433, (difluoro(2-(((S)-1-((2S,4S)-4-(2-((10-(((S)-1-((2S,4R)-4-hydroxy-2-(((S)-1-(4-(4-methylthiazol-5-yl)phenyl)ethyl)carbamoyl)pyrrolidin-1-yl)-3,3-dimethyl-1-oxobutan-2-yl)amino)-10-oxodecyl)amino)-2-oxoethoxy)-2-((R)-2-phenylmorpholine-4-carbonyl)pyrrolidin-1-yl)-3,3-dimethyl-1-oxobutan-2-yl)carbamoyl)benzo[b]thiophen-5-yl)methyl)phosphonic acid] | > 10 | > 10 | 
CC(C)(C)[C@H](NC(=O)c1cc2cc(C(F)(F)P(=O)(O)O)ccc2s1)C(=O)N1CCN(C(=O)CC(=O)NCCCCC#Cc2cccc3c2C(=O)N(C2CCC(=O)NC2=O)C3=O)C[C@H]1C(=O)N1CCO[C@H](c2ccccc2)C1 (stereo partly drawn) [Compound 513, ((2-(((2S)-1-((2S)-4-(3-((6-(2-(2,6-dioxopiperidin-3-yl)-1,3-dioxoisoindolin-4-yl)hex-5-yn-1-yl)amino)-3-oxopropanoyl)-2-((R)-2-phenylmorpholine-4-carbonyl)piperazin-1-yl)-3,3-dimethyl-1-oxobutan-2-yl)carbamoyl)benzo[b]thiophen-5-yl)difluoromethyl)phosphonic acid] | > 10 |  | 
CC(C)(C)[C@H](NC(=O)c1cc2cc(C(F)(F)P(=O)(O)O)ccc2s1)C(=O)N1C[C@@H](OCCCCCCC#Cc2cccc3c2CN(C2CCC(=O)NC2=O)C3=O)C[C@H]1C(=O)N1CCOC(c2cccc3ccccc23)C1 (stereo partly drawn) [Compound 612] |  |  | DC50 (MOLM-16 cells, numeric bound, read-out: DC50 S6 MOLM-16): > 0.3 µM
CC(C)(C)[C@H](NC(=O)c1cc2cc(C(F)(F)P(=O)(O)O)ccc2s1)C(=O)N1C[C@@H](OCC(=O)NCCC#Cc2cccc3c2C(=O)N(C2CCC(=O)NC2=O)C3=O)C[C@H]1C(=O)N1CCC[C@H](c2ccccc2)C1 (stereo partly drawn) [Compound 495, ((2-(((2S)-1-((2S,4S)-4-(2-((4-(2-(2,6-dioxopiperidin-3-yl)-1,3-dioxoisoindolin-4-yl)but-3-yn-1-yl)amino)-2-oxoethoxy)-2-((R)-3-phenylpiperidine-1-carbonyl)pyrrolidin-1-yl)-3,3-dimethyl-1-oxobutan-2-yl)carbamoyl)benzo[b]thiophen-5-yl)difluoromethyl)phosphonic acid] | > 10 |  | 
Cc1ncsc1-c1ccc([C@H](C)NC(=O)[C@@H]2C[C@@H](O)CN2C(=O)[C@@H](NC(=O)CCNC(=O)COc2ccc3c(c2)CN(C(=O)[C@@H](NC(=O)c2cc4cc(C(F)(F)P(=O)(O)O)ccc4s2)C(C)(C)C)[C@H](C(=O)N2CCC[C@H](c4ccccc4)C2)C3)C(C)(C)C)cc1 [Compound 471, (difluoro(2-(((S)-1-((S)-7-(2-((3-(((S)-1-((2S,4R)-4-hydroxy-2-(((S)-1-(4-(4-methylthiazol-5-yl)phenyl)ethyl)carbamoyl)pyrrolidin-1-yl)-3,3-dimethyl-1-oxobutan-2-yl)amino)-3-oxopropyl)amino)-2-oxoethoxy)-3-((R)-3-phenylpiperidine-1-carbonyl)-3,4-dihydroisoquinolin-2(1H)-yl)-3,3-dimethyl-1-oxobutan-2-yl)carbamoyl)benzo[b]thiophen-5-yl)methyl)phosphonic acid] | > 10 |  | 
Cc1ncsc1-c1ccc(CNC(=O)[C@@H]2C[C@@H](O)CN2C(=O)[C@@H](NC(=O)CCCCCCCNC(=O)CO[C@@H]2C[C@@H](C(=O)N(C)c3ccc(Br)cc3)N(C(=O)[C@@H](NC(=O)c3cc4cc(C(F)(F)P(=O)(O)O)ccc4s3)C(C)(C)C)C2)C(C)(C)C)cc1 [Compound 419, ((2-(((S)-1-((2S,4R)-2-((4-bromophenyl)(methyl)carbamoyl)-4-(2-((8-(((S)-1-((2S,4R)-4-hydroxy-2-((4-(4-methylthiazol-5-yl)benzyl)carbamoyl)pyrrolidin-1-yl)-3,3-dimethyl-1-oxobutan-2-yl)amino)-8-oxooctyl)amino)-2-oxoethoxy)pyrrolidin-1-yl)-3,3-dimethyl-1-oxobutan-2-yl)carbamoyl)benzo[b]thiophen-5-yl)difluoromethyl)phosphonic acid] |  | > 10 | DC50 (MB231 cells, read-out: DC50 S6 MB231): > 10 µM
